From article PMC11938014, “Development and Application of Small Molecule–Peptide Conjugates as Cathepsin K-Specific Covalent Irreversible Inhibitors in Human Osteoclast and Lung Cancer” (JACS Au, 2025)

Legend:
human osteoclasts = test: Bone resorption assay, pit formation on bone slices (toluidine blue); format: cell-based; details: Osteoclast, compared to vehicle-treated OC
Protocol: The selective blockage of cellular CTSK activity allowed us to assess the effect of the inhibitors on bone resorption induced by osteoclasts (OCs) as an important step toward therapeutic application in osteoporosis, bone metastases, and other diseases associated with excessive bone resorption. Human OCs were derived from CD14+ monocytes that were extracted from healthy donors’ blood and treated with M-CSF and RANKL, as described in Abdallah et al.[46] The OC were grown on cortical bone slices over 14 days in the presence of the CTSK inhibitors to evaluate the impact of inhibitors on bone resorption; see scheme (Figure 6a).
Figure 6 CTSK inhibition in human osteoclasts. (a) Scheme of the process of maturation of osteoclasts (OCs) derived from human monocytes in the presence of RANKL and M-CSF. […] (c) Quantitative analysis of pit formation in bone slices after incubation with OC treated with GD20 or ODN (1, 5 μM) relative to vehicle treated slices. […] (e) Quantification of osteoclasts number on bone slices after inhibitor treatment, detected by TRAP staining. […] The activity of CTSK in the cells was detected by 2 h labeling with a pan-cathepsin activity-based probe, GB123, followed by a fluorescence scan of the SDS-PAGE detecting CTSK attached to the probe; the red arrow points to the bands of CTSK (above 25 kDa). […]

[1] = biological target: T1, endogenous cathepsin K in human osteoclasts (Homo sapiens, UniProt P43235); test: Fluorescence microscopy of CTSK inhibition in human osteoclasts; format: cell-based; details: human OC, 3 μM, 2 h; for fluorescence signal of pan-cathepsin probe GB123: then GB123 2 h; for CTSK activity labeled by GD32 probe: then GD32 8 h
T1 construct: endogenous in cells; host or cells: primary human osteoclasts differentiated from blood monocytes with M-CSF and RANKL
T1 sequence (P43235 115-329): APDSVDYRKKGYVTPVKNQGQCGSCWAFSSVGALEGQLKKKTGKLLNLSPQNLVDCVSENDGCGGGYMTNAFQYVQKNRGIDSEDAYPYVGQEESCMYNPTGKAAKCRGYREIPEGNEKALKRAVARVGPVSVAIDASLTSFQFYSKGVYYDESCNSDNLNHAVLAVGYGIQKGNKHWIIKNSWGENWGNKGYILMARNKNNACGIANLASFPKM
Protocol: We next corroborated CTSK-specific inhibition by fluorescence microscopy studies of OC. Human OC were grown on 8-well plates; the intact cells were treated with either of the CTSK inhibitors or with the vehicle and then with the CTSK-specific fluorescent ABP GD32.[19] The fluorescence microscopy pictures were acquired following cell fixation, which permitted imaging and evaluating CTSK activity and inhibition in cells. […] As the inhibitors are specific to CTSK, they could not block the fluorescence signals of GB123 associated with other cathepsins (B, L, S) (Figure 8b).
Figure 8 Detection of inhibition of endogenous cathepsin K in intact cells by fluorescence microscopy. Enriched human monocytes from peripheral blood mononuclear cells (PBMC) were isolated from healthy donors’ blood and were treated for 14 days with M-CSF and RANKL or M-CSF alone, as indicated. Osteoclast cells were treated with vehicle (DMSO) or indicated inhibitors [3 μM] in a culture medium for 2 h, followed by incubation with (a) GD32 (a specific CTSK ABP) for 8 h or (b) GB123 for 2 h. Similar to those described in panel (a), cultures of U2-OS cells (c) and U-87 MG cells (d) were grown in 8-well chambers. Cells were pretreated with either the DMSO or [3 μM] of indicated specific CTSK inhibitors for 2 h and then labeled by the addition of 1.25 μM GD32 to the culture medium for 24 h (U2-OS) or 2 h (U-87 MG). After fixation, cells were stained with 4′,6-diamidino-2-phenylindole (DAPI) (nucleus), and images were captured by confocal microscopy.
Cells were seeded in 8-well chambers and then treated with an inhibitor or vehicle for 2 h. Cells were then labeled with the indicated probes for the indicated times and then washed with PBS, fixed with cold methanol, and mounted with DAPI-Fluoromount-G (SouthernBiotech, 0100-20) before visualization by confocal microscopy. Zeiss Confocal LSM 980 Microscope with Zen software was used with Airyscan (Germany).

fluorescence signal of pan-cathepsin probe GB123 [1]	CTSK activity labeled by GD32 probe [1]	Compound	inhibition at 5 µM (human osteoclasts) [%]
only a partial reduction	completely abolished CTSK activity	CC(C)C[C@H](N[C@@H](c1ccc(-c2ccc(S(C)(=O)=O)cc2)cc1)C(F)(F)F)C(=O)NCC(=O)COC(=O)[C@@H]1CCCN1C(=O)[C@H](CC(C)C)NC(=O)OCC1c2ccccc2-c2ccccc21 [GD20]	94 ± 1.57
only a partial reduction	completely abolished CTSK activity	CC(C)C[C@H](N[C@@H](c1ccc(-c2ccc(S(C)(=O)=O)cc2)cc1)C(F)(F)F)C(=O)NCC(=O)COC(=O)[C@@H]1CCCN1C(=O)[C@H](CCC(N)=O)NC(=O)OCC1c2ccccc2-c2ccccc21 [GD38]	–
–	–	CC(C)(F)C[C@H](N[C@@H](c1ccc(-c2ccc(S(C)(=O)=O)cc2)cc1)C(F)(F)F)C(=O)NC1(C#N)CC1 [ODN, odanacatib, reference compound]	93 ± 1.45
